The values that follow come from paper PMC6281421, “Anticancer activity of 2’-hydroxyflavanone towards lung cancer” (Oncotarget, 2018).

For experiment [1], the target named is T1, Rlip (RLIP76) purified from H358 and H1618 cells (Homo sapiens, UniProt Q15311).
T1 construct: gene RALBP1
T1 sequence (Q15311 2-655): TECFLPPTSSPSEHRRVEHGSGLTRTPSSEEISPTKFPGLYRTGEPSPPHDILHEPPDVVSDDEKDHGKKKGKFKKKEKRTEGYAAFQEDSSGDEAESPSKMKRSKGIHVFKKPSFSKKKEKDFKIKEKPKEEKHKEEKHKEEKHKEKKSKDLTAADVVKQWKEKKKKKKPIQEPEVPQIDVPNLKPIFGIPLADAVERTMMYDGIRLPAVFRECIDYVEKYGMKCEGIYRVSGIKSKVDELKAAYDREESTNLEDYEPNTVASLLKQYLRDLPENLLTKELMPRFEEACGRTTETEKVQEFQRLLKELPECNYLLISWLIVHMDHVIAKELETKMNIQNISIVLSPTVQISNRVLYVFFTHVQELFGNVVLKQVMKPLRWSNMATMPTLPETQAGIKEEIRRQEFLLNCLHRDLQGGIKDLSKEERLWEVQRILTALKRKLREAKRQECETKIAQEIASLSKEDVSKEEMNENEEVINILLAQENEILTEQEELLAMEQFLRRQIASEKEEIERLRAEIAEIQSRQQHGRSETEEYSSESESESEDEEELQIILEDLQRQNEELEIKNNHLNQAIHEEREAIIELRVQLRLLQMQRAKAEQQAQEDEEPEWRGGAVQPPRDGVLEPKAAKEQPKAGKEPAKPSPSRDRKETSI
The experiment can be described thus: […]-DOX uptake into Rlip proteoliposomes, rapid filtration. Conditions: read-out: % inhibition of DOX transport at 20 μM. Type of experiment: biochemical.

Experiment [2] has as its target T2, recombinant RLIP (RLIP76) (Homo sapiens, UniProt Q15311).
T2 construct: gene RALBP1; fragments incl; 38 kDa present
T2 sequence (Q15311 1-655): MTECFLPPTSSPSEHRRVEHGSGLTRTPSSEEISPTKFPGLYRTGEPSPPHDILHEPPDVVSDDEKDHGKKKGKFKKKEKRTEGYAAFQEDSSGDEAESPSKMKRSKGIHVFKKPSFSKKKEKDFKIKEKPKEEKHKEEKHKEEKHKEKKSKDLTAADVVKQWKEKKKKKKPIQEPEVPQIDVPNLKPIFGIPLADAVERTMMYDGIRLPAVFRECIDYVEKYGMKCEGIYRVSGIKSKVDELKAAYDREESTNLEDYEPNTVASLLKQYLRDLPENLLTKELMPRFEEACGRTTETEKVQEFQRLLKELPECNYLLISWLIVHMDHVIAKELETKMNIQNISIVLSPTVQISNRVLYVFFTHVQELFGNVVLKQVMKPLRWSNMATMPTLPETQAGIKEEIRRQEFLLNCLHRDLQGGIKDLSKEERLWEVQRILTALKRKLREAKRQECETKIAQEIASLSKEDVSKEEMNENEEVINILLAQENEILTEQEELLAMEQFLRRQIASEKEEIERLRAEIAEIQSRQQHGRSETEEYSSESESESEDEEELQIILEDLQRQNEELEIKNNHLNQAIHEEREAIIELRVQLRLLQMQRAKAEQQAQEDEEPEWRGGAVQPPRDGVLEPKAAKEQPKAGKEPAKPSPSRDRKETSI
Kind of experiment: DNP-SG affinity resin binding and elution with free DNP-SG. Conditions: 0.2 mM DNP-SG, 10 mM ATP, 10 mM MgCl2; also stimulates the ATPase as allocrite.

Turning to `O=C1CC(c2ccccc2O)Oc2ccccc21` (centres unmarked) [2HF, 2'-hydroxyflavanone], in experiment [1], the inhibition at 20 µM turned out to be 22%.
For the molecule `N[C@@H](CCC(=O)N[C@@H](CSc1ccc([N+](=O)[O-])cc1[N+](=O)[O-])C(=O)NCC(=O)O)C(=O)O` [DNP-SG, dinitrophenyl-S-glutathione], in experiment [2], the “DNP-SG affinity resin binding and elution with free DNP-SG” value is listed as “the same major Rlip protein bands were observed in the 2HF eluate as in the DNP-SG eluate”.

A word on the inhibition: it is the drop in the measured response relative to a control, in per cent.
